Source: paper PMC10746708, “A small molecule iCDM-34 identified by in silico screening suppresses HBV DNA through activation of aryl hydrocarbon receptor” (Cell Death Discovery, 2023)

Key:
PXB cells = assay: Cell viability of HBV-infected PXB cells (RealTime-Glo MT); type: cell-based; conditions: 3 and 30 µM, with or without 10 nM ETV, 7 days
Method: PXB cells (primary cultured human hepatocytes) were purchased from PhoenixBio (Higashi-Hiroshima, Japan) and cultured on collagen type I-coated 96- or 24-well plates in hepatocyte clonal growth medium at 37 °C and 5 % CO2 as previously described. RealTime-Glo MT Cell Viability Assay (Promega) and XTT assay were performed according to a previously established protocol.

[1] = tested on: promoter of hypoxia inducible factor (HIF); set-up: method as in PMID 34492592; conditions: cited from earlier work
phospho-SAMHD1 = assay: Western blotting of phospho-SAMHD1 in HepG2-NTCP-C4 cells; type: cell-based, human; conditions: 30 μM, 1 day
Method: HepG2-NTCP-C4 cells were treated with 30 μM iCDM-17 and iCDM-34 for 1 day. The cells were lyzed with 20 mM TrisHCl pH 7.5 containing 100 mM NaCl, 10 mM EDTA, 1% TritonX-100, 1% Sodium deoxycholate, PhosSTOP (Roche), Complete EDTA free. The lysates were sonicated 30 s and mixed for 1 h with rotation at 4 °C. The lysates were centrifuged at 15,000 rpm for 10 min at 4 °C. The supernatants were analyzed by Western blotting using anti-phospho-SAMHD1 (Thr592) (Cell signaling technology, 89930, 1/1000), anti-SAMHD1 (Cell signaling technology, 49158, 1/1000), and β−actin (Santa Cruz, 1/1000).

HBV-infected PXB cells [2] = assay: Microarray gene expression analysis of HBV-infected PXB cells; type: cell-based, human
Method: PXB cells cultured in 24-well plates were infected with three genome equivalents per cell of HBV C_AT. After 24 days of infection, the cells were treated with 0.3 and 30 µM iCDM-34 and 1,000 IU/mL IFN-α (Sumitomo Dainippon Pharma, Osaka, Japan) for 7 days (n = 3). Total RNA was extracted from the treated cells and subjected to microarray analysis. The raw and normalized data were uploaded to NCBI Gene Expression Omnibus (GSE180646).
To explore the biological interpretation of the transcriptome data, the canonical pathways and upstream causal networks were identified using knowledge-based functional analysis software from Ingenuity Pathways Analysis (IPA; Ingenuity Systems, Redwood City, CA, USA). […] A statistical measure of the IPA analysis is the activation z-score, which can be used to identify likely regulating molecules based on a statistically significant pattern match of up- and downregulation, and to predict the activation state (either activated or inhibited) of a putative regulator [37]. An absolute value of z-score more than 2 was considered significant.

HCV replicon cells = assay: AhR knockdown in HCV replicon cells, luciferase assay; type: cell-based; conditions: 30 μM, 2 days
Method: For knockdown of AhR in the HCV replicon cells, 2 ×10^4 cells of HCV replicon cells were mixed with AhR siRNA (siGENOME Human AHR siRNA – Smart pool, Horizon Discovery, Cambridgeshire, United Kingdom) and X-tremeGene 360 transfection reagent (Roche) and plated on 96 well plates. After 2 days of knockdown, the cells were treated with 30 μM iCDM-17, iCDM-34, and CDM-3008 for 2 days. The quantity of HCV replicons and cell viability were measured. The cellular RNA was purified using Agencourt RNAdvance (Beckman Coulter, San Jose, CA) and reverse-transcribed using PrimeScript RT master mix (Takara Bio, Kusatsu, Japan) to measure amount of AhR and β-actin mRNAs by quantitative PCR.

[3] = Metabolic analysis in vivo: blood concentration after injection; conditions: PXB-mice (cDNA-uPA^wild/+/SCID), other: injection, human hepatocyte-chimeric mouse, blood at 5-480 min, n = 1, read-out: t1/2 in blood
HBV-infected PXB cells [4] = assay: pgRNA and OAS1 mRNA by qPCR in HBV-infected PXB cells; type: cell-based, human; conditions: 7 days
Method: mRNA expression levels were measured by qPCR using specific primers or sets of specific primers and probe. RNA was reverse transcribed using PrimeScript RT Master Mix (Takara Bio, Shiga, Japan) to synthesize complementary DNA (cDNA). OAS1,glyceraldehyde 3-phosphate dehydrogenase (GAPDH), β-actin mRNA expression levels were measured using specific primers and TB Green Premix Ex Taq II (Takara Bio). AhR (Hs00169233_m), CDK1 (Hs00938777_m), CDK2 (Hs01548894_m) mRNA expression levels were measured using specific probe and primer sets (Thermo Fisher Scientific, Waltham, MA, USA) and Probe qPCR mix (Takara Bio) in a CFX96 Touch Real-Time PCR Detection System (Bio-Rad Laboratories, Hercules, CA, USA). The specific primers used in this study were OAS1 (forward primer: 5′-[…]-3′, reverse primer: 5′-[…]-3′), reverse primer: 5′-[…]-3′, and GAPDH (forward primer: 5′-[…]-3′, reverse primer: 5′-[…]-3′). β-actin (forward primer: forward primer: 5′-[…]-3′ and reverse primer: 5′-[…]-3′). Expression levels were determined using the 2^–ΔΔCt method and were normalized to endogenous β-actin mRNA expression levels.
PXB cells were plated on 96-well plate and infected with three genome equivalents per cell of HBV C_AT [33], and the medium was changed every 3 or 4 days. […]

JAK/STAT signaling = assay: Western blotting of phospho-STAT1, STAT2, STAT3 in HCV replicon cells; type: cell-based, human; conditions: 30 μM, 24 h
Method: HCV replicon cells were treated with 30 μM CDM-3008, iCDM-17, and iCDM-34 for 1 day. The cells were lyzed with 1 x SDS sample buffer containing PhosStop, Complete EDTA free, and 1 mM EDTA. After sonication for 30 s, the lysates were centrifuged at 12,000g for 10 min at 4 °C, and then the supernatants were collected. After reducing the 20 μg of supernatants with 50 mM DTT at 98 °C for 2 min, the samples were separated by SDS-PAGE. STAT1, STAT2, STAT3, pSTAT1, pSTAT2, and pSTAT3 were detected by Western blotting using anti-STAT1 (9175, 1/1000), STAT2 (72604, 1/1000), STAT3 (12640, 1/1000), pSTAT1 (Y701) (7649, 1/1000), pSTAT2 (Y690) (88410, 1/1000), and pSTAT3 (Y705) (9145, 1/1000) antibodies (Cell signaling technology, Massachusetts, USA).

For O=C(Nc1ccc(Br)cc1)c1ccn(Cn2cc([N+](=O)[O-])cn2)n1 [iCDM-34], the “cytotoxicity (cell viability)” value (PXB cells) is given as “no cytotoxicity”, the “suppression of HIF promoter” value [1] is given as “suppress” and the phospho-SAMHD1 levels (phospho-SAMHD1) is given as “lower than pre-treatment levels”. For the same compound, the “expression of ADH1B, G6PC, ADH1A, TAT, SLC38A3, and SLC22A7” value (HBV-infected PXB cells [2]) was “suppressed”, the “expression of CYP1A1, CYP1A2, CYP4A11, CYP1B1, AKR1B15, and AKR1B10” value (HBV-infected PXB cells [2]) was “upregulated” and the “anti-HCV activity (HCV replicon RNA) with AhR siRNA” value (HCV replicon cells; AhR siRNA) was “not present”. For the same compound, the “anti-HCV activity (HCV replicon RNA) with control siRNA” value (HCV replicon cells; control siRNA) was “significant anti-HCV activity”, the half-life [3] was 23 min and the pgRNA expression level (HBV-infected PXB cells [4]; 30 µM) was “significantly decreased”. For the same compound, the “expression of OAS1 (ISG)” value (HBV-infected PXB cells [4]; 0.0003–30 μM) was “no increase” and the “phosphorylation of STAT1, STAT2, and STAT3” value (JAK/STAT signaling) was “not induced”.
